According to publication PMC11438102, “Modulation of cannabinoid receptor 2 alters neuroinflammation and reduces formation of alpha-synuclein aggregates in a rat model of nigral synucleinopathy” (Journal of Neuroinflammation, 2024):

Key:
CB2 = system: CB2; set-up: method as in PMID 27766068; details: microglia; cited from earlier work
[1] = system: human Asyn (pSer129, proteinase K-resistant, total) in substantia nigra; assay: Immunohistochemistry of Asyn species in substantia nigra, optical density; type: in vivo; details: rat low cohort, 6 mg/kg i.p. daily 7 weeks
Experimental: Rats were administered unilateral injections of AAV2/5-human wild-type (WT) Asyn at titers of 2.9–4.3 × 10^11 vector genomes (vg)/mL (termed “low cohort”), which was previously shown to not induce nigral neurotoxicity [27]. Thereby, generating a model with overexpression of human WT Asyn and Asyn-mediated neuroinflammation. One week after surgery, animals were randomly selected to receive daily systemic injections of either SMM-189 (intraperitoneal (i.p.), 6 mg/kg, n = 12) or vehicle (i.p., n = 12) and followed for 8 weeks (Figs. 1; n = 2 rats per group were removed due to poor nigral targeting). […] After blood collection, animals were transcardially perfused with ice-cold PBS and the frontal cortex frozen for gene analysis, the striatum frozen for western blotting analysis, and the midbrain post-fixated in 4% PFA to be processed for immunohistochemistry. A second low cohort of rats (SMM-189 n = 6 or vehicle n = 3 with n = 2 removed due to poor nigral targeting) completed the study and provided extra tissue to perform additional immunohistochemical and western blotting analyses.
Brains were post-fixed in 4%PFA for 48 h and transferred to 30% sucrose and cut at 40 μm on a freezing microtome. In brief, endogenous peroxidase was quenched with 3% hydrogen peroxide, blocked with 8% normal serum, avidin (Vector Cat#SP-2001) and 0.1% Triton-X and incubated overnight at 4°C with biotin (Vectorlabs Cat#SP-2001), normal serum and primary antibodies specific for Asyn (Clone 4B12; BioLegend Cat# 807801, RRID: AB_2564730), pSer129 Asyn (Clone EP1536Y; Abcam Cat# ab51253, RRID: AB_869973), CD68 (Bio-Rad Cat# MCA341R, RRID: AB_2291300), MHCII (Bio-Rad Cat# MCA46GA, RRID: AB_567369), and CD163 (Bio-Rad Cat# MCA342A, RRID: AB_2074557). Tissue was incubated in appropriate biotinylated secondary antibodies (1:200), amplified with Vectastain ABC kit (Vectorlabs Cat#PK-6100) and developed with diaminobenzidine tablets or diaminobenzidine drop kit with nickel (Vector Cat#SK-4100) for CD68 immunostaining. […]

[2] = system: IBA1, CD68, CD163, MHCII in substantia nigra; assay: Immunohistochemistry/immunofluorescence of immune cell markers in substantia nigra; type: in vivo; details: rat low cohort, 6 mg/kg i.p. daily 7 weeks, vs vehicle
Experimental: Brains were post-fixed in 4%PFA for 48 h and transferred to 30% sucrose and cut at 40 μm on a freezing microtome. In brief, endogenous peroxidase was quenched with 3% hydrogen peroxide, blocked with 8% normal serum, avidin (Vector Cat#SP-2001) and 0.1% Triton-X and incubated overnight at 4°C with biotin (Vectorlabs Cat#SP-2001), normal serum and primary antibodies specific for Asyn (Clone 4B12; BioLegend Cat# 807801, RRID: AB_2564730), pSer129 Asyn (Clone EP1536Y; Abcam Cat# ab51253, RRID: AB_869973), CD68 (Bio-Rad Cat# MCA341R, RRID: AB_2291300), MHCII (Bio-Rad Cat# MCA46GA, RRID: AB_567369), and CD163 (Bio-Rad Cat# MCA342A, RRID: AB_2074557). Tissue was incubated in appropriate biotinylated secondary antibodies (1:200), amplified with Vectastain ABC kit (Vectorlabs Cat#PK-6100) and developed with diaminobenzidine tablets or diaminobenzidine drop kit with nickel (Vector Cat#SK-4100) for CD68 immunostaining.
Tissue was blocked with 5% normal serum in TBS + 0.25% Triton-X and further incubated overnight at 4°C with primary antibodies specific for IBA1 (FUJIFILM Wako Pure Chemical Corporation Cat# 019-19741, RRID: AB_839504) and tyrosine hydroxylase (ImmunoStar Cat# 22941, RRID: AB_572268) to identify microglia in the substantia nigra or tyrosine hydroxylase (Millipore Cat# AB152, RRID: AB_390204) and Asyn (Clone 4B12; BioLegend Cat# 807801, RRID: AB_2564730) to evaluate accuracy of stereotaxic injection targets. Tissue was incubated in secondary antibodies conjugated to appropriate fluorophores for 2 h at room temperature and mounted tissue with Vectashield, an aqueous mounting media with DAPI (Vectorlabs Cat#H-2000).
IBA1-positive total immune cell counts and area of immunoreactivity (ir) were quantified using Nikon NIS elements software. Four fluorescent z-stacks of IBA1 stained nigra were collected from images of lesioned and non-lesioned nigra from targeted low cohort animals using a Nikon Eclipse 90i microscope and maximum project images were used for quantification. CD68-ir and CD163-ir was quantified from two to three microphotographs from each animal throughout the substantia nigra using ImageJ particle count analysis. Microphotographs of the nigra immunochemically stained for either Asyn, pSer129 Asyn and proteinase K-resistant Asyn were quantified using Image J (version 1.54f). Regions of Interest (ROIs) were drawn on two to three images throughout the nigra and optical density measurements collected and averaged for each animal. Measurements were normalized to the vehicle group so that data from all cohorts could be combined.

[3] = Blood brain barrier penetration / pharmacokinetics of SMM-189 in mice; type: in vivo; details: 6 mg/kg
Experimental: Analysis of the brain-to-blood ratios of SMM-189 were performed by Sai Life Sciences Limited (Telangana, India). All procedures of the study were in accordance with the guidelines provided by the Committee for the Purpose of Control and Supervision of Experiments on Animals (CPCSEA) as published in The Gazette of India, December 15, 1998. Prior approval of the Institutional Animal Ethics Committee (IAEC) was obtained before initiation of the study. In brief, 54 mice were weighed and divided as Group 1 (6 mg/kg, i.p.) and Group 2 (6 mg/kg, by oral (p.o.)). Animals in Group 1 and Group 2 were administered intraperitoneally and orally with SMM-189 solution formulation at 6 mg/kg in 5% Ethanol, 5% Cremophor and 90% Normal Saline, respectively. The blood samples were collected under light isoflurane anesthesia at 0.08, 0.25, 0.5, 1, 2, 4, 8, 12 and 24 h (i.p.) and 0.25, 0.5, 1, 2, 4, 6, 8, 12 and 24 h (p.o.) in labeled micro centrifuge tube containing K2EDTA as anticoagulant. After blood collection, plasma was harvested by centrifugation and stored at -70 °C until analysis. Immediately after collection of blood, brain samples were collected from set of three mice at each time point at 0.08, 0.25, 0.5, 1, 2, 4, 8, 12 and 24 h (Group 1; i.p.) and 0.25, 0.5, 1, 2, 4, 6, 8, 12 and 24 h (Group 2; p.o.). Brain samples were homogenized using ice-cold phosphate buffer saline (pH-7.4) in a ratio of 2 (buffer):1(brain); and homogenates were stored below − 70 ± 10 °C until analysis. Total homogenate volume was three times the brain weight. All samples were processed for analysis by protein precipitation using acetonitrile and analyzed with fit-for-purpose LC-MS/MS method (LLOQ = 1.02 ng/mL for plasma and 6.09 ng/g for brain).
Non-compartmental-analysis module in Phoenix WinNonlin® (Version 6.3) was used to assess the pharmacokinetic parameters. Maximum concentration (Cmax) and time to reach the maximum concentration (Tmax) were the observed values. The areas under the concentration time curve (AUClast and AUCinf) were calculated by linear trapezoidal rule. The terminal elimination rate constant, ke was determined by regression analysis of the linear terminal portion of the log plasma concentration-time curve. The terminal half-life (T1/2) was estimated as 0.693/ke.

## O=C(c1ccccc1)c1cc(O)c(-c2cc(Cl)cc(Cl)c2)c(O)c1 [SMM-189]
CB2
  levels of nuclear phosphorylated cAMP response-element binding protein (pCREB): increased
[1]; clone 4B12, vs vehicle
  total human Asyn in substantia nigra, optical density: not different
[1]; lesioned nigra
  pS129-ir optical density in substantia nigra, normalized to vehicle: reduced
[1]; vs vehicle
  proteinase-K resistant Asyn in substantia nigra, optical density: decreased
[2]
  IBA1 counts and area in nigra, effect of treatment: not a significant effect of treatment
  intensity or area coverage of MHCII in the lesioned nigra: No differences
[2]; AAV-injected nigra
  nigral CD68-ir particle counts: increased
[2]; lesioned nigra
  CD163 in the nigra: decreased
[3]; brain, i.p.
  Cmax: 204.64 ng/mL
  Tmax: 30 min
[3]; brain, p.o.
  Cmax: 70.34 ng/mL
  Tmax: 15 min
[3]; i.p.
  Brain/plasma ratio (Cmax): 0.74
[3]; p.o.
  Brain/plasma ratio (Cmax): 1.63
[3]; plasma, i.p.
  Cmax: 277.07 ng/mL
  Tmax: 30 min
[3]; plasma, p.o.
  Cmax: 43.15 ng/mL
  Tmax: 15 min
